Measurements published in ChEMBL document CHEMBL5518227, “Discovery of JNJ-1802, a First-in-Class Pan-Serotype Dengue Virus NS4B Inhibitor” (J Med Chem, 2024).
Values after ≈ are worked out from the molar mass of the structure shown.

Legend:
[1] = test system: dengue virus type 3; assay: Antiviral activity against DENV-3 H87 infected in african green monkey Vero cells incubated for 24 hrs measured after 3 days post infection by RT-PCR analysis; format: functional, organism-based; details: Dengue virus, H87, Vero; read-out: EC50
[2] = test system: dengue virus type 2; assay: Antiviral activity against DENV-2 16681 expressing eGFP infected in african green monkey Vero cells incubated with cells for 24 hrs followed by viral infection measured after 3 days by laser microscopic analysis; format: functional, organism-based; details: Dengue virus, 16681, Vero
[3] = test system: dengue virus type 1; assay: Antiviral activity against DENV-1 TC974#666 infected in african green monkey Vero cells incubated for 24 hrs measured after 3 days post infection by RT-PCR analysis; format: functional, organism-based; details: read-out: EC50
[4] = Metabolic stability in human liver microsomes assessed as intrinsic clearance preincubated for 5 mins followed by NADPH addition measured upto 60 mins by LC-MS/MS analysis; format: ADME, Microsome; details: time < 65 min, read-out: CLH
[5] = test system: dengue virus type 4; assay: Antiviral activity against DENV-4 H241 infected in african green monkey Vero cells incubated for 24 hrs measured after 3 days post infection by RT-PCR analysis; format: functional, organism-based
[6] = Chromatographic hydrophobicity index, log D of the compound at pH 7.4 by LC/MS analysis; format: physicochemical; details: buffer
[7] = Metabolic stability in human hepatocytes assessed as intrinsic clearance measured per million cells incubated upto 120 mins by LC-MS/MS analysis; format: ADME, cell-based, Hepatocyte; details: read-out: CLH
[8] = Metabolic stability in mouse liver microsomes assessed as intrinsic clearance preincubated for 5 mins followed by NADPH addition measured upto 60 mins by LC-MS/MS analysis; format: ADME, Microsome; details: time < 65 min, read-out: CLH
[9] = Metabolic stability in rat liver microsomes assessed as intrinsic clearance preincubated for 5 mins followed by NADPH addition measured upto 60 mins by LC-MS/MS analysis; format: ADME, Microsome; details: time < 65 min, read-out: CLH
[10] = Clearance in Sprague-Dawley rat at 2.5 mg/kg, iv measured after 24 hrs by LC-MS/MS analysis; format: ADME, organism-based; details: in vivo
[11] = Volume of distribution at steady state in Sprague-Dawley rat at 2.5 mg/kg, iv measured after 24 hrs by LC-MS/MS analysis; format: ADME, organism-based; details: in vivo, read-out: Vdss
[12] = AUC in Sprague-Dawley rat at 10 mg/kg, po measured after 24 to 48 hrs by LC-MS/MS analysis; format: ADME, organism-based; details: in vivo, time 24-48 hrs
[13] = Thermodynamic solubility of the compound in aqueous buffer at pH 7.4 measured after 24 hrs by UPLC analysis; format: physicochemical; details: read-out: Therm_solubility
[14] = Oral bioavailability in Sprague-Dawley rat at 10 mg/kg measured after 24 to 48 hrs by LC-MS/MS analysis; format: ADME, organism-based; details: in vivo, time 24-48 hrs
[15] = Cmax in Sprague-Dawley rat at 10 mg/kg, po measured after 24 to 48 hrs by LC-MS/MS analysis; format: ADME, organism-based; details: in vivo, time 24-48 hrs
[16] = Elimination half life in Sprague-Dawley rat at 2.5 mg/kg, iv measured after 24 hrs by LC-MS/MS analysis; format: ADME, organism-based; details: in vivo, read-out: beta t1/2 (converted)
[17] = Clearance in Sprague-Dawley rat assessed as liver blood flow at 2.5 mg/kg, iv measured after 24 hrs by LC-MS/MS analysis; format: ADME, organism-based; details: in vivo
[18] = Metabolic stability in rat hepatocytes assessed as intrinsic clearance measured per million cells incubated upto 120 mins by LC-MS/MS analysis; format: ADME, cell-based, Hepatocyte; details: read-out: CLH
[19] = Thermodynamic solubility of the compound in PEG400 measured after 24 hrs by UPLC analysis; format: physicochemical

SMILES | EC50 [1] [nM] | EC50 [2] [nM] | EC50 ([3]; Dengue virus, TC974#666, Vero) [nM] | microsomal CLint [4] [µL/min/mg] | EC50 [5] [nM] | Chromatographic log D at pH 7.4 [6] | hepatocyte CLint [7] [µL/min/1e6 cells] | microsomal CLint [8] [µL/min/mg] | microsomal CLint [9] [µL/min/mg] | clearance [10] [mL/min/kg] | Vd [11] [L/kg] | AUC [12] [ng·h/mL] | solubility thermodynamic at 24 h [13] [µg/mL] | bioavailability [14] [%] | Cmax [15] [ng/mL] | half-life [16] [h] | LBF [17] [%] | hepatocyte CLint [18] [µL/min/1e6 cells] | EC50 ([3]; vero) [nM] | Therm_solubility [19] [µg/mL]
COc1cc(NC(C(=O)c2c[nH]c3c(C)cc(OC(F)(F)F)cc23)c2ccc(Cl)cc2OC)cc(S(C)(=O)=O)c1 (configuration not stated) | 1 | 0.051 | 0.1 | < 8 | 11 | 4.16 | < 1.2 |  |  |  |  |  |  |  |  |  |  |  |  | 
COc1cc(NC(C(=O)c2c[nH]c3ccccc23)c2ccc(F)cc2)cc(S(C)(=O)=O)c1 (configuration not stated) | 680 | 9 | 88 | 12 | 1800 |  |  | 48 | 16 |  |  |  |  |  |  |  |  |  |  | 
COc1cc(NC(C(=O)c2c[nH]c3cc(F)ccc23)c2ccc(Cl)cc2OCCO)cc(S(C)(=O)=O)c1 (single isomer, unassigned; (+)) | 9 | 0.46 | 1 |  | 71 |  | 29 |  |  |  |  |  |  |  |  |  |  |  |  | 
COc1cc(NC(C(=O)c2c[nH]c3cc(OC)c(C)cc23)c2ccc(Cl)cc2OCCO)cc(S(C)(=O)=O)c1 (single isomer, unassigned; (+)) | 17 | 0.37 | 2 |  | 53 | 3.24 | < 1.9 |  |  | 21 | 7.1 | 1200 | < 1 | 16 | 103 | 4.7 | 31 | 3.7 |  | 
COc1cc(NC(C(=O)c2c[nH]c3ccccc23)c2ccc(F)cc2)cc(OCCO)c1 (configuration not stated) | 950 | 14 | 86 | < 8 | 2600 |  |  | 94 | 24 |  |  |  |  |  |  |  |  |  |  | 
COc1cc(NC(C(=O)c2c[nH]c3cc(F)ccc23)c2ccc(F)cc2OCCO)cc(S(C)(=O)=O)c1 (single isomer, unassigned; (+)) | 68 | 1 | 8 |  | 290 | Not Active | 27 |  |  | 35 | 10 | 1250 | 1 (≈ 1.88 µM) | 27 | 104 | 3.9 | 40 | 8.8 |  | 
COc1cc(NC(C(=O)c2c[nH]c3cc(OC)c(C)cc23)c2ccc(F)cc2OCCO)cc(S(C)(=O)=O)c1 (single isomer, unassigned; (+)) | 43 | 0.84 | 3 |  | 110 | 2.98 | < 1.9 |  |  | 30 | 9.6 | 1010 | < 1 | 18 | 94 | 4.2 | 42 | 11 |  | 
COc1cc(NC(C(=O)c2c[nH]c3cc(OC)c(C)cc23)c2ccc(Cl)cc2OC)cc(S(C)(=O)=O)c1 (configuration not stated) |  |  | 0.97 | < 8 |  |  |  |  |  | 23 | 8.8 | 5140 | 1 (≈ 1.84 µM) | 74 | 371 | 4.4 | 33 | 7.2 | 0.9 | > 169000
COc1cc(NC(C(=O)c2c[nH]c3cc(OC)ccc23)c2ccc(Cl)cc2OC)cc(S(C)(=O)=O)c1 (single isomer, unassigned; (+)) | 48 | 0.3 | 4 | < 8 | 110 | 3.23 | 10 |  |  |  |  |  |  |  |  |  |  |  |  | 
COc1cc(NC(C(=O)c2c[nH]c3c(C)c(F)ccc23)c2ccc(Cl)cc2OC)cc(S(C)(=O)=O)c1 (single isomer, unassigned; (+)) | 19 | 0.24 | 2 | < 8 | 83 | 3.73 |  |  |  |  |  |  |  |  |  |  |  |  |  | 
COc1cc(NC(C(=O)c2c[nH]c3cc(F)ccc23)c2ccc(F)cc2OC)cc(S(C)(=O)=O)c1 (configuration not stated) | 50 |  | 8 |  | 170 | 3.23 | < 1.9 |  |  | 16 | 7.2 | 5210 | 2 (≈ 4 µM) | 49 | 418 | 5.3 | 23 | 8.5 |  | 41000
